In patent publication EP3895685A1, “NATURAL COMPOSITION FOR HAIR GROWTH STIMULATION AND HAIR LOSS PREVENTION AND TREATMENT WITHOUT PRESERVATIVES” (Fraunhofer-Gesellschaft zur Förderung der angewandten …, priority 2020, dated 2021):

How the values were obtained:
HFDPC [1] = experiment: Assessment of cell morphology by phase contrast microscopy; assay type: cell-based, human; conditions: for cell adherence and proliferation (summary): confluence and cell shape after 3 weeks, diosgenin concentration-dependent
Protocol: (§1) First, Human Follicle Dermal Papilla Cells (HFDPC) cells were thawed and seeded into collagen-coated cell culture flasks (T25). Then the medium was changed every 48 h. After 4 days the cells were trypsinized and seeded in T75 cell culture flask. In preparation for the final experiment, the cells were trypsinized and then counted with a cell counter. The cell concentration was then adjusted in a defined amount of medium followed by seeding of the cells in 96-well plates for the subsequent cell impedance measurements (5000 cells per well) or in 24-well plates (20000 cells per well). Subsequently, the cells were cultivated for 7 days in pure culture medium with regular medium changes after 2-3 days. After 7 days, the medium with the additives listed in Table 1 was added (designated as day 0), followed by a 3-week cultivation of the cells. The medium (and addition of fresh active substances) was changed every 2-3 days. […] The following examinations were carried out after 7, 14 and 21 days. Cells in pure culture medium (C+M) were used as controls (untreated). All cell culture substrates were coated with collagen prior to cell seeding. The tests with HFDPC were run without the use of preservatives.
Cell morphology was assessed through microscopic examination of the cells with an inverted microscope (phase contrast microscopy) at 10x and 20x primary magnification. The morphology of the cells provides information on the adherence behaviour of the cells,possible cell activation and cell stress. This examination was carried out on a 24-well scale.

VEGF = experiment: VEGF-ELISA in cell culture supernatant; assay type: cell-based, human
From the text: If the cell membrane is damaged, the lactadehydrogenase (LDH) present inside the cell is released into the cell culture supernatant. The resulting NADH/H+ reduces the tetrazolium salt present in the reaction mixture to formazan. This becomes visible by a colour change, which can be detected at an absorption of 450 nm (y-axis: OD 450 nm) in the microplate reader. The higher the intensity of the colour change, the greater the degree of membrane damage. A low OD 450 nm value is desired. Four diagrams are presented: The LDH level after one week (LDH 1st Week of Trial), two weeks (LDH 2nd Week of Trial) and three weeks (LDH 3rd Week of Trial) after the HFDPC cells were exposed to the control conditions or to the actives substances. The control conditions are HFDPC with medium (blue, C+M). Active substances are arachidonate with low concentration (purple, Ara 1.c), arachidonate with high concentration (orange, Ara 2.c), diosgenin with low concentration (black, Dios 1.c), diosgenin with high concentration (brown, […]), ricinoleic acid with low concentration (dark blue, Rici 1.c), ricinoleic acid with high concentration (dark violet, Rici 2.c), inventive example with low concentration (red, IE 1.c) inventive example with high concentration (green, IE 2.c). The fourth diagram presents a background control, in which the LDH level was measured by OD 450 nm values (y-axis) from the cell culture supernatant for the medium (blue, M) as a control test and for the medium with the active substance in high concentrations (green, M+Ara 2.c; purple, M+Dios 2.c; orange, M+Rici 2.c; black, M+IE 2.c) after one, two and three weeks (x-axis). • FIG 2: Phase contrast images of untreated HFDPC (HFDPC in medium) 1 week after cell cultivation a) 10x magnification, b) 20x magnification • FIG 3: Phase contrast images of treated HFDPC in 20x magnification, one week after addition of the active ingredient a) Ara 1.c, b) Ara 2.c, c) Rici 1.c, d) Rici 2.c, e) Dios 1.c, f) Dios 2.c, g) IE 1.c, h) IE 2.c • FIG 4: Phase contrast images of untreated and treated HFDPC in 20x magnification, two weeks after addition of the active ingredient a) Medium b) Ara 1.c, c) Ara 2.c, d) Rici 1.c, e) Rici 3.c, f) Dios 1.c, g) Dios 2.c, h) IE 1.c, i) IE 2.c • FIG 5: Phase contrast images of untreated and treated HFDPC in 20x magnification, three weeks after addition of the active ingredient a) Medium b) Ara 1.c, c) Ara 2.c, d) Rici 1.c, e) Rici 3.c, f) Dios 1.c, g) Dios 2.c, h) IE 1.c, i) IE 2.c • FIG 6: Alkaline Phosphatase Alkaline phosphatase (AP) is an enzyme that catalyses the hydrolysis of a large number of phosphate esters. The enzyme is formed by the HFDPCs during the hair cycle. Thus, the detection of AP is the proof of hair growth. […]

HFDPC [2] = experiment: Cell count after trypsination; assay type: cell-based, human; conditions: for influence on the cell count (summary): over 3 weeks
Protocol: as §1
This investigation was performed on a 24-well scale.
To perform this investigation 5000 cells per well were seeded in the 96-wells with the addition of a maximum of 200 µl medium. The cells were grown for 7 days in pure cell culture medium. The medium was changed every 2-3 days, whereby 100 µl of old medium was removed and replaced by 100 µl of new medium. After 7 days the "pure" cell culture medium was completely removed and medium with the respective additives was added. The cells were then cultivated for 3 weeks with regular replacement of the medium with the respective additives. Cell counting after trypsinizing: The exact cell count of HFDPC was determined after trypsination of the cells in the respective well and uptake of the resulting cell pellets in medium. All pellets of one sample were combined in a cell culture vessel and then counted with a cell counter.

HFDPC [3] = experiment: Immunofluorescent staining of vimentin; assay type: cell-based, human; conditions: 2. Concentration (2c)
HFDPC [4] = experiment: Cell impedance test (xCELLigence, cell index) on proliferation and toxicity; assay type: cell-based
[5] = 2 weeks after addition, versus untreated cells
[6] = 1. Concentration (1c), after 3 weeks
[7] = 1 week after addition, versus untreated cells
[8] = depending on concentration and time, compared to untreated cells
[9] = 250 µg/mL in medium, first 24 hours after addition

## CCCCC/C=C\C/C=C\C/C=C\C/C=C\CCCC(=O)[O-].[Na+] [Ara, Sodium Arachidonate]
HFDPC [1]; 2 weeks after addition, higher concentration
  cell density: higher cell density
HFDPC [1]; [5]
  cell morphology / confluence: almost the same morphology
VEGF; [6]
  VEGF release: lower VEGF release
HFDPC [2]; after 3 weeks, higher concentration, compared to untreated cells
  cell count: increase in HFDPC
HFDPC [2]; entire duration of the experiment, independent of time and concentration
  cell count: did not negatively affect the cell count
HFDPC [2]; over 2 weeks
  cell count: remained constant
HFDPC [3]
  cell spreading and attachment to the cell culture substrate: able to clearly spread and attach to the cell culture substrate
HFDPC [4]; 50 µg/mL in medium
  cell index: increase the cell index
  toxic effect on the cells: does not have a toxic effect
HFDPC [4]; 100µg/mL in medium
  toxic effect on the cells: has a toxic effect

## C[C@@H]1CC[C@@]2(OC1)O[C@H]1C[C@H]3[C@@H]4CC=C5C[C@@H](O)CC[C@]5(C)[C@H]4CC[C@]3(C)[C@H]1[C@@H]2C [Dios, Diosgenin]
HFDPC [1]; [7]
  cell morphology / confluence: greater confluence
HFDPC [1]; [5]
  cell morphology / confluence: very high confluence in the well and elongated, typical growth
HFDPC [1]; 3 weeks after addition, lower concentration
  cell morphology / confluence: resembled untreated cells
HFDPC [1]
  cell adherence and proliferation (summary): very beneficial
VEGF; 1. Concentration (1c), after 1 week
  VEGF release: lower VEGF release
VEGF; [6]
  VEGF release: lower VEGF release
HFDPC [2]; 1c, over time
  number of HDFPC: remained constant after addition of Diosgenin 1c, but was increased compared to untreated cells
HFDPC [2]; 2c, over time, compared to untreated and Diosgenin 1c treated cells
  cell number: significant increase in cell number
HFDPC [2]; [8]
  cell count: positive influence on the cell number
HFDPC [2]
  influence on the cell count (summary): positive influence on the cell count
HFDPC [3]
  cell spreading and attachment to the cell culture substrate: able to clearly spread and attach to the cell culture substrate
HFDPC [4]; measured maximum concentration of 500 µg/mL
  toxicity in the cellular impedance test: not toxic

## CCCCCC[C@@H](O)C/C=C\CCCCCCCC(=O)O [Rici, 12-hydroxy-9-cis-octadecenoic acid]
HFDPC [1]; [7]
  cell morphology / confluence: greater confluence
HFDPC [1]; [5]
  cell morphology / confluence: very high confluence in the well and elongated, typical growth
HFDPC [1]; 3 weeks after addition, both concentrations
  cell morphology / confluence: confluent, very dense monolayer and an elongated cell shape
HFDPC [1]
  cell adherence and proliferation (summary): very beneficial
VEGF; 2. Concentration (2.c), after 3 weeks
  VEGF release: lower VEGF release
HFDPC [2]; after 1 week, compared to untreated cells
  cell count: difference was visible
HFDPC [2]; [8]
  cell count: significant increase in cell count
HFDPC [2]
  influence on the cell count (summary): positive influence on the cell count
HFDPC [4]; 100µg/mL, after 24 h and 48 h addition
  cell index: remained constant
HFDPC [4]; [9]
  cell index: positive influence on the cell index
  toxic effect on the cells: does not appear to have a toxic effect
HFDPC [4]; 250 µg/mL, after 48h of repeated addition
  cell index: decreases
